Values quoted from earlier work, collected in US6869615B2, “Pharmaceutical formulations containing a non-steroidal antiinflammatory drug and a proton pump inhibitor” (Andrx Labs LLC, priority 2000, dated 2005).

| SMILES | patients who experience gross bleeding and ulceration (chronic use, Langman et al, Lancet 1994) | patients with side effects that require cessation of medication (NSAIDs such as diclofenac) |
| --- | --- | --- |
| CN1C(C(=O)Nc2ccccn2)=C(O)c2ccccc2S1(=O)=O [piroxicam] | up to 4% |  |
| O=C(O)Cc1ccccc1Nc1c(Cl)cccc1Cl [diclofenac] |  | about 20% |
